Measurements: publication PMC12865480 (Pharmaceuticals, 2025)
Where “and” joins values, the source holds several entries; their conditions need not be identical. Equal entries are not always repeated. Where two headings read alike, the source gives them in different places.

How the values were obtained:
[1] = physchem; details: pH 7.4
[2] = molecular target: T1, σ2 receptor (Rattus norvegicus, UniProt Q5U3Y7); assay: biochemical; type: binding; details: read-out: Ki ± SEM σ2
T1 sequence (Q5U3Y7 1-176): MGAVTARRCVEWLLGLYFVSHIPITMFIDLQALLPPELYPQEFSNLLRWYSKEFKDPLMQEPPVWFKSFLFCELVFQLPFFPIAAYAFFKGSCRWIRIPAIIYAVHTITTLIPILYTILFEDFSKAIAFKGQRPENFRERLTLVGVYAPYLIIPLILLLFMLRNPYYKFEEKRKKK

[3] = after 90 min incubation with mouse liver microsomes and NADPH
[4] = molecular target: PCP binding site of the NMDA receptor; assay: PCP binding site assay, radioligand [3H](+)-MK-801, pig brain preparations; details: n = 3, values without SEM mean of two experiments
[5] = molecular target: T2, σ1 receptor (Cavia porcellus, UniProt Q60492); assay: biochemical
T2 sequence (Q60492 whole entry): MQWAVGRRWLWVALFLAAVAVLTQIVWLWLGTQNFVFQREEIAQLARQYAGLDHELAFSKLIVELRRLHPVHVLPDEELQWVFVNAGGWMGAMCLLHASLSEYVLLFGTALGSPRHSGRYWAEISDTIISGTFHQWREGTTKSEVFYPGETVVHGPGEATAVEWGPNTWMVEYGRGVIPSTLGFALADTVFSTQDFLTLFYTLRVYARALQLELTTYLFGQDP

[6] = molecular target: T3, ifenprodil binding site of NMDA receptors with GluN2B subunit (Homo sapiens, UniProt Q05586+Q13224); assay: biochemical
T3 construct: expressed in transfected cells; host or cells: mouse L(tk-) cells, stably transfected, expression induced with dexamethasone; membrane homogenate
T3 sequence (Q13224 27-1484, other chains not shown): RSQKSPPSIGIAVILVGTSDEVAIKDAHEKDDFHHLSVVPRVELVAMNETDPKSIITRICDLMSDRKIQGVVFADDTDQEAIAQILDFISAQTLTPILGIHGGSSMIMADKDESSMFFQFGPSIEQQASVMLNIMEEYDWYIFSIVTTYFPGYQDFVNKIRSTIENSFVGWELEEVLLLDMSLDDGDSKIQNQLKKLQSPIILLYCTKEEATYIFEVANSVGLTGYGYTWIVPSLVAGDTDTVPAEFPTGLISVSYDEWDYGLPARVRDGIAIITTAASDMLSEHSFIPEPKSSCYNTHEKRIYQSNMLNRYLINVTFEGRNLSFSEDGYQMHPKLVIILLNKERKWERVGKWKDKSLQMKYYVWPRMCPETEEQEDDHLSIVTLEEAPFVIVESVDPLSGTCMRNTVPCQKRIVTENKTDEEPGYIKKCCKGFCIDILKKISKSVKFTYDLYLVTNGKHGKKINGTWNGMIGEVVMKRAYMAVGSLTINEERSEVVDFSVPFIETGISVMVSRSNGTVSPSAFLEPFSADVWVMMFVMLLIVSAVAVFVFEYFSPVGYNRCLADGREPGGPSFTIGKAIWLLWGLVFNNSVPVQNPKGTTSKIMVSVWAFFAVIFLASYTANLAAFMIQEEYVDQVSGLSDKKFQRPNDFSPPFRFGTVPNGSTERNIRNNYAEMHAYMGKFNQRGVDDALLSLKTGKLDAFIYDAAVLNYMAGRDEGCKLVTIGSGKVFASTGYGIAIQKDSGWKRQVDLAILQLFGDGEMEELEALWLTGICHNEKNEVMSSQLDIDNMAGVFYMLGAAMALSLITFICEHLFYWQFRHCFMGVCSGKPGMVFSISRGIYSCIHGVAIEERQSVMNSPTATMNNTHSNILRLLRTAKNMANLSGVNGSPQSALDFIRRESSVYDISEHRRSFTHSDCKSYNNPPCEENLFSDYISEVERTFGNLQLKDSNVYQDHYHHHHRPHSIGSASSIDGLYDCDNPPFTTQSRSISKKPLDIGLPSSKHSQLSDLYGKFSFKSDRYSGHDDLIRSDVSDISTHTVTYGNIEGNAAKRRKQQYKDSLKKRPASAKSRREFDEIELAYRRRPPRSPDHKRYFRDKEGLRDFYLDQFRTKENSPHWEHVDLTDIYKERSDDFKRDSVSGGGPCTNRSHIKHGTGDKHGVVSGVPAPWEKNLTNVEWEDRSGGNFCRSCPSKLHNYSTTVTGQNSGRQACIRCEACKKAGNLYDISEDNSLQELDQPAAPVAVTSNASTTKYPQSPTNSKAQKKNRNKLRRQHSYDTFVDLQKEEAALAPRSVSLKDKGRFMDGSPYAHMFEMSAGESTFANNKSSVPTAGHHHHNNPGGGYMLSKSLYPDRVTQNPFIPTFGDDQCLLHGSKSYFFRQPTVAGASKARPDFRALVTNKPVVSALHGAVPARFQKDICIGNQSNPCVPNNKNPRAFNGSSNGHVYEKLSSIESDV

[7] = molecular target: T2, σ1 receptor; details: for σ1:σ2 receptor selectivity: σ1 over σ2
[8] = molecular target: κ-opioid receptor (Cavia porcellus, UniProt P41144); assay: κ-opioid receptor binding study; details: read-out: inhibition of the radioligand binding, κ receptor
Sequence of κ-opioid receptor (P41144 whole entry): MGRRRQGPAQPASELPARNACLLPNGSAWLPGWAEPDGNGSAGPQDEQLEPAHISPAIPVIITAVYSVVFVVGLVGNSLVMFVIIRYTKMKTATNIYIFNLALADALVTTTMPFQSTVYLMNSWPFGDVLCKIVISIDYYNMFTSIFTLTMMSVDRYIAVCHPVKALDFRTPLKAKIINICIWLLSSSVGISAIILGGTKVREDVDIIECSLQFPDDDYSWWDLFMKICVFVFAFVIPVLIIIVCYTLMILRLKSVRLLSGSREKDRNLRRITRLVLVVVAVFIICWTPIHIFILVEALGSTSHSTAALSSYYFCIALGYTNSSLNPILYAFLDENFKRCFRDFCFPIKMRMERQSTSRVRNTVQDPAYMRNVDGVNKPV

[9] = molecular target: µ-opioid receptor (Cavia porcellus, UniProt A0ACM8Q262); assay: µ-opioid receptor binding study; details: read-out: inhibition of the radioligand binding, µ receptor
Sequence of µ-opioid receptor (A0ACM8Q262 1-400): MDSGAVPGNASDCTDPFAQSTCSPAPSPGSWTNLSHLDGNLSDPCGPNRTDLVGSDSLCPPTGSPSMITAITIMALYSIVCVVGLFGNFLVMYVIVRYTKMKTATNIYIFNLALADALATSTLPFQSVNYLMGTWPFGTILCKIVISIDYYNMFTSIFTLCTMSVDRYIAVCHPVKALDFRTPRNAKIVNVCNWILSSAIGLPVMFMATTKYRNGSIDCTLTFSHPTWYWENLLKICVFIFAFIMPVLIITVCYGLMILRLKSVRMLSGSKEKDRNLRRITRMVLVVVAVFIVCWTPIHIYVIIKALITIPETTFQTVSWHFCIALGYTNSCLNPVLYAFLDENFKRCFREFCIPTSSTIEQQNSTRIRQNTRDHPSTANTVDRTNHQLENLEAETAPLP

[10] = molecular target: δ-opioid receptor (Rattus norvegicus, UniProt P33533); assay: δ-opioid receptor binding study; details: read-out: inhibition of the radioligand binding, δ receptor
Sequence of δ-opioid receptor (P33533 whole entry): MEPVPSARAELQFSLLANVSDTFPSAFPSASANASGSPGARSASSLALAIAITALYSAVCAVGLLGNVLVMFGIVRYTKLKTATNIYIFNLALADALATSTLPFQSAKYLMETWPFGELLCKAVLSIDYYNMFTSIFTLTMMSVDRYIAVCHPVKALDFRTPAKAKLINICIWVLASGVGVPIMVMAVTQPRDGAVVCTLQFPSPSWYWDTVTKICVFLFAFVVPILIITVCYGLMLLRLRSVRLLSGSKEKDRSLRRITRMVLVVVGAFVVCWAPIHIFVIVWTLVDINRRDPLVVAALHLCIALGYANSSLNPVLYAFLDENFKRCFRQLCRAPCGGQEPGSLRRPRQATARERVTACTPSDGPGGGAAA

[11] = molecular target: PCP binding site of the NMDA receptor; details: earlier study; cited from earlier work
[12] = molecular target: T2, σ1 receptor; details: earlier study; cited from earlier work
[13] = test system: capsaicin mouse model of neuropathic pain; details: dose of 0.25 mg/kg body weight; cited from earlier work

| Compound | logD [1] | Ki [2] [nM] | Metabolic Stability (5): amount of the remaining unmetabolized parent compound [3] | Ki [4] [nM] | Ki ([5]; Ki ± SEM σ1) [nM] | Ki ([5]; pKi(σ1)) [nM] | LLE (ligand-lipophilicity efficiency) [7] | Ki ([6]; read-out: Ki ± SEM GluN2B) [nM] | further results |
| --- | --- | --- | --- | --- | --- | --- | --- | --- | --- |
| CC[C@]1(c2ccccc2)OCC[C@H](CCCCN2CCCC2)O1 (relative stereo) [19b, 1-[4-(trans-2-Ethyl-2-phenyl-1,3-dioxan-4-yl)butyl]pyrrolidine] | 1.29 ± 0.05 | 57 ± 1.9 | 62 ± 2% | > 1000 | 56 ± 19 | 56.2 | 5.96 |  | Ki [6]: 67 ± 18 nM |
| c1ccc(CNCCCC[C@H]2CCO[C@@H](c3ccccc3)O2)cc1 (relative stereo) [17a, N-Benzyl-4-(cis-2-phenyl-1,3-dioxan-4-yl)butan-1-amine] | 1.32 ± 0.04 | 213 | 56% and 56 ± 3% | > 1000 | 31 ± 4 | 30.9 | 6.19 | > 1000 | inhibition at 1 µM [8]: 0%; inhibition at 1 µM [9]: 3%; selectivity for the σ1 receptor against the ifenprodil binding site [7]: > 30 fold; selectivity for the σ1 receptor over δ-opioid receptors ([7]; σ1 over δ-opioid receptor): 9 fold; σ1:σ2 receptor selectivity [7]: approx. 7 fold |
| CC[C@]1(c2ccccc2)OCC[C@H](CCCCN(C)Cc2ccccc2)O1 (relative stereo) [18b, N-Benzyl-4-(trans-2-ethyl-2-phenyl-1,3-dioxan-4-yl)-N-methyl-butan-1-amine] | 3.54 ± 0.06 | 24 ± 6.3 | 36% and 36 ± 1% | > 1000 | 8.7 ± 3.6 | 8.71 | 4.52 |  | inhibition at 1 µM [10]: 0%; inhibition at 1 µM [8]: 0%; Ki [6]: 20 ± 3.3 nM; inhibition at 1 µM [9]: 0%; σ1:σ2 receptor selectivity [7]: 3 fold |
| CCC1(c2ccccc2)OCCC(CCCC(NC)c2ccccc2)O1 (stereo not drawn) [25b, 4-(trans-2-Ethyl-2-phenyl-1,3-dioxan-4-yl)-N-methyl-1-phenylbutan-1-amine] |  | 255 |  | > 1000 | 58 ± 8.2 |  |  | 190 ± 39 |  |
| CC[C@]1(c2ccccc2)OCC[C@H](CCCCNC)O1 (relative stereo) [16b, 4-(trans-2-Ethyl-2-phenyl-1,3-dioxan-4-yl)-N-methylbutan-1-amine] |  | 311 |  | > 1000 | 107 ± 5 |  |  | > 1000 |  |
| CCC1(c2ccccc2)OCCC(CCN)O1 (stereo not shown) [2a] |  |  |  |  |  |  |  |  | Ki [11]: 19 nM; Ki [12]: 955 nM |
| c1ccc(CNCCC2CCOC(c3ccccc3)O2)cc1 (stereo not shown) [compound 1] |  |  |  |  |  |  |  |  | analgesic activity [13]: 70% |
| CCC1(c2ccccc2)OCCC(CCCC(NCc2ccccc2)c2ccccc2)O1 (stereo not drawn) [26b, N-Benzyl-4-(trans-2-ethyl-2-phenyl-1,3-dioxan-4-yl)-1-phenylbutan-1-amine] |  | 139 |  | > 1000 | 88 ± 43 |  |  | 257 ± 57 |  |
| c1ccc(CNCCCC2CCOC(c3ccccc3)O2)cc1 (stereo not shown) [compound 4] |  |  |  |  |  |  |  |  | Ki [12]: 164 nM |
| CNC(CCC[C@H]1CCO[C@@H](c2ccccc2)O1)c1ccccc1 (relative stereo) [25a, N-Methyl-1-phenyl-4-(cis-2-phenyl-1,3-dioxan-4-yl)butan-1-amine] |  | > 1000 |  | > 1000 | 144 ± 26 |  |  | 716 |  |
| CC[C@]1(c2ccccc2)OC[C@H]([C@@H]2CCCCN2)O1 [etoxadrol] |  |  |  |  |  |  |  |  | Ki [11]: 22 nM |
| c1ccc(C(CCC[C@H]2CCO[C@@H](c3ccccc3)O2)N2CCCC2)cc1 (relative stereo) [27a, 1-[1-Phenyl-4-(cis-2-phenyl-1,3-dioxan-4-yl)butyl]pyrrolidine] | 2.2 ± 0.07 | > 1000 | 76% and 76 ± 3% | > 1000 | 161 ± 59 | 162 | 4.59 | 366 |  |
| CC[C@]1(c2ccccc2)OCC[C@H](CCCCNCc2ccccc2)O1 (relative stereo) [17b, N-Benzyl-4-(trans-2-ethyl-2-phenyl-1,3-dioxan-4-yl)butan-1-amine] | 2.65 ± 0.04 | 22 ± 1.9 | 50 ± 4% | 569 ± 141 | 14 ± 6.1 | 14.1 | 5.20 |  | inhibition at 1 µM [8]: 0%; Ki [6]: 39 ± 13 nM |
| CNCCCC[C@H]1CCO[C@@H](c2ccccc2)O1 (relative stereo) [16a, N-Methyl-4-(cis-2-phenyl-1,3-dioxan-4-yl)butan-1-amine] |  | > 1000 |  | > 1000 | 842 |  |  | > 1000 |  |
| NC(CCC[C@H]1CCO[C@@H](c2ccccc2)O1)c1ccccc1 (relative stereo) [24a, 1-Phenyl-4-(cis-2-phenyl-1,3-dioxan-4-yl)butan-1-amine] |  |  |  | > 1000 | > 1000 |  |  | 1350 |  |
| CCC1(c2ccccc2)OCCC(CCCC(c2ccccc2)N2CCCC2)O1 (stereo not drawn) [27b, 1-[4-(trans-2-Ethyl-2-phenyl-1,3-dioxan-4-yl)-1-phenylbutyl]pyrrolidine] | 3.33 ± 0.08 | 64 ± 15 | 55 ± 5% | > 1000 | 19 ± 0.6 | 19.1 | 4.39 |  | Ki [6]: 63 ± 20 nM |
| c1ccc([C@@H]2OCC[C@H](CCCCN3CCCC3)O2)cc1 (relative stereo) [19a, 1-[4-(cis-2-Phenyl-1,3-dioxan-4-yl)butyl]pyrrolidine] | 0.09 ± 0.05 | > 1000 | 55% and 55 ± 2% | > 1000 | 154 ± 8 | 155 | 6.72 | > 1000 |  |
| CN(CCCC[C@H]1CCO[C@@H](c2ccccc2)O1)Cc1ccccc1 (relative stereo) [18a, N-Benzyl-N-methyl-4-(cis-2-phenyl-1,3-dioxan-4-yl)butan-1-amine] | 2.49 ± 0.05 | 31 ± 3.1 | 48 ± 4% | > 1000 | 6.3 ± 2.4 | 6.31 | 5.71 | 261 ± 54 | inhibition at 1 µM [10]: 0%; inhibition at 1 µM [8]: 0%; inhibition at 1 µM [9]: 0%; selectivity for the σ1 receptor against the ifenprodil binding site [7]: > 40 fold; σ1:σ2 receptor selectivity [7]: 5 fold |
| CCC1(c2ccccc2)OCCC(CCCC(N)c2ccccc2)O1 (stereo not drawn) [24b, 4-(trans-2-Ethyl-2-phenyl-1,3-dioxan-4-yl)-1-phenylbutan-1-amine] |  | 170 |  | 524 | 427 |  |  | 136 ± 36 |  |
| c1ccc(CNC(CCC[C@H]2CCO[C@@H](c3ccccc3)O2)c2ccccc2)cc1 (relative stereo) [26a, N-Benzyl-1-phenyl-4-(cis-2-phenyl-1,3-dioxan-4-yl)butan-1-amine] |  | 907 |  | > 1000 | 918 |  |  | > 1000 |  |
| c1ccc(CNCCC2CCCC(c3ccccc3)O2)cc1 (stereo not shown) [compound 3] |  |  |  |  |  |  |  |  | Ki [12]: 6.4 nM |
| NCCCC[C@H]1CCO[C@@H](c2ccccc2)O1 (relative stereo) [14a, 4-(cis-2-Phenyl-1,3-dioxan-4-yl)butan-1-amine] |  | > 1000 |  | > 1000 | > 1000 |  |  | > 1000 | IC50 [5]: > 1000 nM |
| CC[C@]1(c2ccccc2)OCC[C@H](CCCCN)O1 (relative stereo) [14b, 4-(trans-2-Ethyl-2-phenyl-1,3-dioxan-4-yl)butan-1-amine] |  | > 1000 |  | 731 | > 1000 |  |  | > 1000 | IC50 [5]: > 1000 nM |
| CCC1(c2ccccc2)OCCC(CCNCc2ccccc2)O1 (stereo not shown) [2b] |  |  |  |  |  |  |  |  | Ki [12]: 27 nM |
